ChEMBL document CHEMBL1201862, “PubChem BioAssay data set” (2004)
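Compound exposure: 48 hours, 5 concentrations, 96-well plates. GI50 marks 50% less growth.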 Active and inactive are the calls of the source. Cut-off read from the data, not from the text of the source: active = GI50 up to about 1.1 µM and inactive = higher.

What was measured:
Test in all cases: DTP human tumour cell line panel, 48 h
U-251 = tested on: U-251
NCI-H460 = tested on: NCI-H460
HCT-15 = tested on: HCT-15
TK-10 = tested on: TK-10
RXF 393 = tested on: RXF 393
DMS-273 = tested on: DMS-273
HL-60 = tested on: HL-60
SK-MEL-2 = tested on: SK-MEL-2
M19-MEL = tested on: M19-MEL
EKVX = tested on: EKVX
UACC-257 = tested on: UACC-257
NCI-H226 = tested on: NCI-H226
HCT-116 = tested on: HCT-116
OVCAR-8 = tested on: OVCAR-8
COLO 205 = tested on: COLO 205
SF-268 = tested on: SF-268
HOP-62 = tested on: HOP-62
K562 = tested on: K562
NCI-H23 = tested on: NCI-H23
LXFL 529 = tested on: LXFL 529
OVCAR-4 = tested on: OVCAR-4
KM-20L2 = tested on: KM-20L2
CCRF-CEM = tested on: CCRF-CEM
ACHN = tested on: ACHN
SR = tested on: SR
A549 = tested on: A549
OVCAR-5 = tested on: OVCAR-5
LOX IMVI = tested on: LOX IMVI
SK-MEL-28 = tested on: SK-MEL-28
HOP-92 = tested on: HOP-92
KM12 = tested on: KM12
NCI-H522 = tested on: NCI-H522
SNB-78 = tested on: SNB-78
XF498 = tested on: XF498
CAKI-1 = tested on: CAKI-1
HCC 2998 = tested on: HCC 2998
SW-620 = tested on: SW-620
SN12C = tested on: SN12C
SF-295 = tested on: SF-295
786-0 = tested on: 786-0
Malme-3M = tested on: Malme-3M
OVCAR-3 = tested on: OVCAR-3
SF-539 = tested on: SF-539
IGROV-1 = tested on: IGROV-1
MOLT-4 = tested on: MOLT-4
SNB-19 = tested on: SNB-19
SK-OV-3 = tested on: SK-OV-3
A498 = tested on: A498
HT-29 = tested on: HT-29
RPMI-8226 = tested on: RPMI-8226
UO-31 = tested on: UO-31
DLD-1 = tested on: DLD-1
SK-MEL-5 = tested on: SK-MEL-5
DMS-114 = tested on: DMS-114
UACC-62 = tested on: UACC-62
M14 = tested on: M14
SNB-75 = tested on: SNB-75

Measured: GI50

COC(=O)c1c[nH]cc1CCc1c[nH]cc1C(=O)OC
inactive: U-251 > 100 µM | NCI-H460 > 100 µM | TK-10 > 100 µM | RXF 393 27.2 µM | DMS-273 > 100 µM | HL-60 > 100 µM | SK-MEL-2 > 100 µM | M19-MEL > 100 µM | EKVX > 100 µM | UACC-257 > 100 µM | NCI-H226 > 100 µM | HCT-116 > 100 µM | OVCAR-8 > 100 µM | COLO 205 > 100 µM | SF-268 > 100 µM | HOP-62 > 100 µM | K562 > 100 µM | NCI-H23 > 100 µM | LXFL 529 > 100 µM | OVCAR-4 > 100 µM | KM-20L2 > 100 µM | CCRF-CEM > 100 µM | ACHN > 100 µM | SR > 100 µM | A549 > 100 µM | OVCAR-5 > 100 µM | LOX IMVI > 100 µM | SK-MEL-28 > 100 µM | HOP-92 > 100 µM | KM12 > 100 µM | NCI-H522 58.1 µM | SNB-78 > 100 µM | XF498 > 100 µM | CAKI-1 > 100 µM | HCC 2998 > 100 µM | SW-620 > 100 µM | SN12C > 100 µM | SF-295 > 100 µM | 786-0 > 100 µM | Malme-3M > 100 µM | OVCAR-3 > 100 µM | SF-539 > 100 µM | IGROV-1 > 100 µM | MOLT-4 > 100 µM | SNB-19 > 100 µM | SK-OV-3 > 100 µM | A498 48.2 µM | HT-29 > 100 µM
> 100 µM: HCT-15

N#Cc1cc([N+](=O)[O-])ccc1NC(=O)/C(=N/N)C(C(=O)c1ccc(Cl)c(Cl)c1)C1OC(=O)c2ccccc21 (configuration not stated)
inactive: U-251 42.9 µM | NCI-H460 35.8 µM | RXF 393 19.5 µM | SK-MEL-2 72.3 µM | M19-MEL 26.9 µM | RPMI-8226 46.1 µM | EKVX 45 µM | UACC-257 84.7 µM | NCI-H226 16.3 µM | HCT-116 39.1 µM | OVCAR-8 28.1 µM | COLO 205 > 100 µM | SF-268 59.8 µM | UO-31 49.9 µM | HOP-62 54.6 µM | DLD-1 35 µM | K562 24.3 µM | SK-MEL-5 63.7 µM | NCI-H23 25.1 µM | LXFL 529 43 µM | OVCAR-4 30.8 µM | CCRF-CEM 38.9 µM | DMS-114 28.4 µM | ACHN 36.6 µM | SR 54.2 µM | A549 23.7 µM | OVCAR-5 47.2 µM | LOX IMVI 21.7 µM | SK-MEL-28 35.6 µM | HOP-92 8.81 µM | KM12 58.1 µM | NCI-H522 26.1 µM | SNB-78 75 µM | CAKI-1 38.1 µM | UACC-62 31 µM | HCC 2998 65.9 µM | SW-620 95.7 µM | SN12C 90.8 µM | SF-295 26.4 µM | 786-0 59.3 µM | Malme-3M > 100 µM | OVCAR-3 90.8 µM | SF-539 67.5 µM | IGROV-1 > 100 µM | MOLT-4 36.8 µM | SNB-19 69.3 µM | SK-OV-3 > 100 µM | A498 29.4 µM | HT-29 81.3 µM
42.2 µM: HCT-15

COc1cc(C2C(Cl)C(=O)N2NC(=O)c2ccc(N)cc2)ccc1O (configuration not stated)
inactive: U-251 18 µM | NCI-H460 22.9 µM | TK-10 > 100 µM | DMS-273 47.5 µM | HL-60 27.9 µM | SK-MEL-2 59.8 µM | M19-MEL 55.5 µM | RPMI-8226 78 µM | EKVX 92 µM | M14 51.8 µM | UACC-257 > 100 µM | NCI-H226 95.7 µM | HCT-116 22.9 µM | OVCAR-8 21.5 µM | COLO 205 20.8 µM | UO-31 > 100 µM | HOP-62 35.9 µM | DLD-1 29.4 µM | K562 31.3 µM | SK-MEL-5 84.5 µM | NCI-H23 20.9 µM | LXFL 529 16.6 µM | OVCAR-4 81.3 µM | KM-20L2 63.7 µM | CCRF-CEM 18.5 µM | ACHN > 100 µM | A549 > 100 µM | OVCAR-5 56.6 µM | LOX IMVI 14.8 µM | SK-MEL-28 39.2 µM | HOP-92 25.5 µM | KM12 25.1 µM | NCI-H522 19.8 µM | SNB-78 44.2 µM | XF498 31.3 µM | CAKI-1 25.5 µM | UACC-62 64.1 µM | HCC 2998 20.2 µM | SW-620 17.2 µM | SN12C 32 µM | SNB-75 75.5 µM | SF-295 67.8 µM | 786-0 19.1 µM | Malme-3M 16.5 µM | OVCAR-3 16.6 µM | SF-539 26.5 µM | IGROV-1 56.8 µM | MOLT-4 23.5 µM | SNB-19 25.3 µM | SK-OV-3 60.5 µM | A498 > 100 µM | HT-29 23.4 µM
39.9 µM: HCT-15
